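Results reflect a 48-hour exposure of cells in 96-well plates to compound at five concentrations. The concentration for 50% growth inhibition is given as GI50. TGI is the concentration that stops growth completely.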
How the values were obtained:
Assay in all cases: inhibition of tumour cell growth, NCI panel, 48 h
MDA-N = system: MDA-N
BT-549 breast = system: BT-549 breast
NCI/ADR-RES ovarian = system: NCI/ADR-RES ovarian
MDA-MB-435 = system: MDA-MB-435
DLD-1 colon = system: DLD-1 colon
SNB-78 CNS = system: SNB-78 CNS
M19-MEL melanoma = system: M19-MEL melanoma
RXF-631 renal = system: RXF-631 renal

SMILES | TGI (MDA-N) | TGI (BT-549 breast) | TGI (NCI/ADR-RES ovarian) | TGI (MDA-MB-435) | GI50 (BT-549 breast) | GI50 (NCI/ADR-RES ovarian) | GI50 (MDA-MB-435) | TGI (DLD-1 colon) | TGI (SNB-78 CNS) | TGI (M19-MEL melanoma) | TGI (RXF-631 renal)
Cc1[nH]c2ccccc2c1-c1cc(-c2cc(-c3c(C)[nH]c4ccccc34)nc(N)n2)nc(N)n1 | > 100 µM | > 100 µM | > 100 µM | > 100 µM | – | – | – | – | – | – | –
C[C@@H]1Cc2c([nH]c3ccccc23)[C@@H](c2c(F)cc(NC3CN(CCCF)C3)cc2F)N1CC(F)(F)CO | – | 4.04 µM | 16.6 µM | 15.1 µM | 2050 nM | 4.1 µM | 3890 nM | – | – | – | –
O=[N+]([O-])/C=C/c1cc2ccccc2[nH]1 | 12.1 µM | 29.5 µM | 98.2 µM | 6.95 µM | – | – | – | – | – | – | –
CN(C)C/C=C/C(=O)Nc1cc2c(Nc3ccc(F)c(Cl)c3F)ncnc2cc1OCCOC(F)F | – | 6.86 µM | 3.74 µM | 6.63 µM | 1570 nM | 0.499 µM | 1170 nM | – | – | – | –
O=C(O)c1cc2ccccc2c(N=Nc2cc(C(F)(F)F)ccc2Cl)c1O | > 100 µM | – | > 100 µM | > 100 µM | – | – | – | – | – | – | –
Cc1nc(CN2CCCCC2)c(O)c(=O)[nH]1 | > 100 µM | > 100 µM | > 100 µM | > 100 µM | – | – | – | – | – | – | –
CC(C)C1CC2C(=O)N(c3ccccc3)C(=O)C2c2[nH]c3ccccc3c21 (stereo unspecified) | – | – | – | – | – | – | – | > 100 µM | 77.3 µM | > 100 µM | –
CN1C(c2ccccc2)CS(=O)(=O)CS1(=O)=O (stereo unspecified) | – | – | – | – | – | – | – | > 100 µM | > 100 µM | > 100 µM | > 100 µM
COC(=O)c1c(O)c([N+](=O)[O-])cc2c1c1c(n2Cc2ccccc2)C(=O)c2ccccc2C1=O | – | 51.5 µM | 68.5 µM | 28 µM | 5900 nM | 21.1 µM | 6280 nM | – | – | – | –
CN(CC#N)C1CCCC[C@H]1O (stereo partly specified) | – | – | – | – | – | – | – | > 100 µM | > 100 µM | – | –
Nc1nc2cc3ccc(C4CC(O)C(CO)O4)cc3cc2c(=O)[nH]1 (stereo unspecified) | – | > 100 µM | > 100 µM | > 100 µM | > 100000 nM | > 100 µM | > 100000 nM | – | – | – | –
CS(=O)(=O)Nc1cccc(-c2cc(-c3ccccc3Cl)c(C#N)c(N)n2)c1 | – | 15.4 µM | > 22.2 µM | 1.76 µM | 532 nM | 0.552 µM | 165 nM | – | – | – | –
Cc1cc2cn3c4ccc(O)cc4[nH]c(=O)c3c2cc1C | – | – | – | 0.0121 µM | – | – | – | – | – | – | –
N#CC(C#N)N=Nc1ccc(Br)cc1 | – | 31.5 µM | > 100 µM | 20 µM | 4180 nM | 4.73 µM | 4190 nM | – | – | – | –
OC(COc1ccc(F)cc1)Cn1cnc2c(Cl)ncnc21 (stereo unspecified) | – | > 100 µM | > 100 µM | > 100 µM | > 100000 nM | > 100 µM | 41600 nM | – | – | – | –
O=C(Nc1cccc(Cc2cccc(NC(=O)c3ccccc3)c2)c1)c1ccccc1 | – | – | – | – | – | – | – | > 100 µM | – | > 100 µM | –
CN1CCN(c2cc(C(=O)Nc3cc4cc(-c5cnn(C)c5)ccc4cn3)ccn2)CC1 | – | 0.838 µM | 76.4 µM | 13.2 µM | 78.1 nM | 0.246 µM | 169 nM | – | – | – | –
O=Cc1ccc(-c2ccc(-c3nc4ccccc4o3)cc2)s1 | – | 52.6 µM | 79.4 µM | 77.9 µM | 18000 nM | 27.2 µM | 24100 nM | – | – | – | –

SMILES | TGI (MDA-N) | TGI (BT-549 breast) | TGI (NCI/ADR-RES ovarian) | TGI (MDA-MB-435) | GI50 (BT-549 breast) | GI50 (NCI/ADR-RES ovarian) | GI50 (MDA-MB-435) | TGI (DLD-1 colon) | TGI (SNB-78 CNS) | TGI (M19-MEL melanoma) | TGI (RXF-631 renal)
NC(=O)c1coc(C2OC(CO)C(O)C2O)n1 (stereo unspecified) | – | – | – | – | – | – | – | – | > 100 µM | > 100 µM | –
Nc1ccccc1NC(=O)c1ccc(CCCC(=O)Nc2ccc(C3CC3N)cc2)cc1 (stereo unspecified) | – | 37.9 µM | > 100 µM | 9.05 µM | 3090 nM | 45.7 µM | 1570 nM | – | – | – | –
CCOC(=O)C(=O)Nc1ccc(Cl)cc1C | – | – | – | – | – | – | – | > 100 µM | > 100 µM | > 100 µM | –
COC(=O)CCC(=O)Nc1cc(Cl)ccc1Cl | – | – | – | – | – | – | – | > 100 µM | > 100 µM | > 100 µM | –
O=C(O)c1cc2ccccc2oc1=O | > 100 µM | > 100 µM | > 100 µM | > 100 µM | – | – | – | – | – | – | –
CN(C)/N=C(/c1nc2ccc([N+](=O)[O-])cc2[nH]c1=O)C(O)c1ccco1 (stereo unspecified) | – | – | – | – | – | – | – | > 100 µM | > 100 µM | > 100 µM | –
CC(=O)c1ccc2c(ccc(=O)n2C)c1 | – | – | – | – | – | – | – | > 100 µM | – | > 100 µM | –
O=C(c1ccccc1)c1oc2ccc(Br)cc2c1-c1cnn(-c2ccccc2)c1 | – | – | – | – | – | – | – | > 100 µM | > 100 µM | > 100 µM | –
O=C(CC1(O)C(=O)Nc2ccccc21)c1ccco1 (stereo unspecified) | – | – | – | – | – | – | – | > 100 µM | > 100 µM | > 100 µM | –
S=C(Nc1ccc(Cl)cc1)Nc1ccc(-c2nc3ccccc3o2)cc1 | – | 60.7 µM | 58.7 µM | 43.9 µM | 22200 nM | 21.8 µM | 18500 nM | – | – | – | –
CCN1C2=NCCN2S(=O)(=O)c2ccccc21 | > 100 µM | > 100 µM | > 100 µM | > 100 µM | – | – | – | – | – | – | –
O=C(/C=C/C=C/c1c(C2CC2)nc2ccccc2c1-c1ccc(F)cc1)c1cccs1 | – | 5.07 µM | > 100 µM | – | 1590 nM | 2.62 µM | – | – | – | – | –
CC(=O)N1c2ccccc2NC2=C(C(=O)N(Cc3ccccc3)C2(C)C)C1c1ccco1 (stereo unspecified) | – | > 25 µM | > 25 µM | 0.859 µM | 8660 nM | > 21.6 µM | 277 nM | – | – | – | –
O=C(O)CCC/C=C\C[C@H]1C=CC(=O)/C1=C/C[C@@H](O)CCc1cccc(C(F)(F)F)c1 | – | 11.3 µM | 29.3 µM | 4.94 µM | 2830 nM | 3.15 µM | 1820 nM | – | – | – | –
CCCCCCCCCCCCCCCC[N+](C)(CCO)Cc1cnc[nH]1 (stereo unspecified) | – | 7.05 µM | 42.4 µM | 3.81 µM | 2520 nM | 14.7 µM | 1440 nM | – | – | – | –
COC(=O)NC1(NC(=O)OC)NC(=O)c2cc(OC)c(OC)c(OC)c2N1 | 16.9 µM | > 100 µM | 56.6 µM | – | – | – | – | – | – | – | –
Cc1ccc(NC(=O)C(=O)CC(=O)C2CCOC2=O)c(C)c1 (stereo unspecified) | – | – | – | – | – | – | – | > 100 µM | > 100 µM | – | > 100 µM
COc1ccc(Cc2cc3c(cc2OCC(=O)O)OCO3)cc1 | – | – | – | – | – | – | – | > 100 µM | – | > 100 µM | > 100 µM
